Our source for the IC50 values is patent US6384041B1, “Bicyclic sPLA2 inhibitors” (Eli Lilly and Company, priority 1998, dated 2002).

For the experiment, the target named is T1, recombinant human secreted phospholipase A2 (Homo sapiens, UniProt P14555).
T1 sequence (P14555 21-144): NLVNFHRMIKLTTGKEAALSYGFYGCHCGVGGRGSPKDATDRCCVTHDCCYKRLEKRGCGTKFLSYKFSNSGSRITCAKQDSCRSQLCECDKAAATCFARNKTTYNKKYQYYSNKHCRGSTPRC
Put plainly: Human Recombinant hnp-sPLA2 Chromogenic Assay. It counts as biochemical. From the text:
The following chromogenic assay procedure was used to identify and evaluate inhibitors of recombinant human secreted phospholipase A2.The assay described herein has been adapted for high volume screening using 96 well microtiter plates. A general description of this assay method is found in the article, “Analysis of Human Synovial Fluid Phospholipase A2 on Short Chain Phosphatidylcholine-Mixed Micelles: Development of a Spectrophotometric Assay Suitable for a Microtiterplate Reader”, by Laure J. Reynolds, Lori L. Hughes, and Edward A Dennis, Analytical Biochemistry, 204, pp. 190-197, 1992 (the disclosure of which is incorporated herein by reference): Reagents:
Bovine Serum Albumin (fatty acid free) (1 g/L)
(Sigma A-7030, product of Sigma Chemical Co. St. Louis Mo., USA) […]
pH 7.5 (adjust with NaOH)
Adjust pH to 4.5 with acetic acid
DTNB—5,5′-dithiobis-2-nitrobenzoic acid
Racemic Diheptanoyl Thio-PC racemic 1,2-bis(heptanoylthio)-1,2-dideoxy-sn-glycero-3-phosphorylcholine TRITON X-100™ prepare at 6.249 mg/ml in reaction buffer to equal […].
A measured volume of racemic dipheptanoyl thio PC supplied in chloroform at a concentration of 100 mg/ml is taken to dryness and redissolved in 10 millimolar TRITON X-100™ nonionic detergent aqueous solution.
Reaction Buffer is added to the solution, then DTNB to give the Reaction Mixture.
The reaction mixture thus obtained contains lmM diheptanoly thio-PC substrate, 0.29 mm Triton X-100™ detergent, and 0.12 mm DTMB in a buffered aqueous solution at pH 7.5.
1. Add 0.2 ml reaction mixture to all wells;
2. Add 10 ul test compound (or solvent blank) to appropriate wells, mix 20 seconds;
3. Add 50 nanograms of sPLA2 (10 microliters) to appropriate wells;
4. Incubate plate at 40° C. for 30 minutes;
5. Read absorbance of wells at 405 nanometers with an automatic plate reader.
All compounds were tested in triplicate. Typically, compounds were tested at a final concentration of 5 ug/ml. […] Lack of color development at 405 nanometers evidenced inhibition. Compounds initially found to be active were reassayed to confirm their activity and, if sufficiently active, IC50 values were determined. […] In all cases, % inhibition measured at 405 nanometers generated by enzyme reactions containing inhibitors relative to the uninhibited control reactions was determined. Each sample was titrated in triplicate and result values were averaged for plotting and calculation of IC50 values. IC50 were determined by plotting log concentration versus inhibition values in the range from 10-90% inhibition.

[1] abbreviates: chromogenic assay, diheptanoyl thio-PC substrate, pH 7.5, 40° C. for 30 minutes, absorbance at 405 nm, average of n = 3-4, read-out: IC50 (micro-molar) n = 3 − 4 (ave).

Structures are written as SMILES. Like-named read-outs stand apart in the source and are kept apart here.

The IC50 is the point on the concentration scale where inhibition reaches its midpoint. In the case of `CCc1c(C(=O)C(N)=O)c2c(OCC(=O)OC)nc(C)nc2n1Cc1ccccc1` [—CH3|—CH3|phenyl, [[2-methyl-5-(aminooxoacetyl)-6-ethyl-7-(phenylmethyl)-7H-pyrrolo[2,3-d]pyrimidin-4-yl]oxy]acetic acid methyl ester], the IC50 under setting [1] worked out at 4650 nM.
For the compound `CCc1c(C(=O)C(N)=O)c2c(OCC(=O)OC)ncnc2n1Cc1ccccc1` [—CH3|—H|phenyl, [[5-(aminooxoacetyl)-6-ethyl-7-(phenylmethyl)-7H-pyrrolo[2,3-d]pyrimidin-4-yl]oxy]acetic acid methyl ester], the concentration for half-maximal inhibition (IC50) under setting [1] turned out to be 5460 nM.
For the compound `CCc1c(C(=O)C(N)=O)c2c(OCC(=O)O)nc(C)nc2n1Cc1ccccc1` [—H|—CH3|phenyl, [[2-methyl-5-(aminooxoacetyl)-6-ethyl-7-(phenylmethyl)-7H-pyrrolo[2,3-d]pyrimidin-4-yl]oxy]acetic Acid], the IC50 turned out to be 88 nM.
For the compound `CCc1c(C(=O)C(N)=O)c2c(OCC(=O)O)ncnc2n1Cc1cccc(C(F)(F)F)c1` [—H|—H|m-CF3-phenyl, [[5-(aminooxoacetyl)-6-ethyl-7-[[3-(trifluoromethyl)phenyl]methyl]-7H-pyrrolo[2,3-d]pyrimidin-4-yl]oxy]acetic acid], the IC50 under setting [1] amounted to 124 nM.
With `CCc1c(C(=O)C(N)=O)c2c(OCC(=O)O)ncnc2n1Cc1cccc(Cl)c1` [—H|—H|m-Cl-phenyl, [[5-(aminooxoacetyl)-6-ethyl-7-[(3-chlorophenyl)methyl]-7H-pyrrolo[2,3-d]pyrimidin-4-yl]oxy]acetic acid], the IC50 turned out to be 91 nM.
The same measure, in the same setting: with `CCc1c(C(=O)C(N)=O)c2c(OCC(=O)O)ncnc2n1Cc1cccc(F)c1` [—H|—H|m-F-phenyl, [[5-(aminooxoacetyl)-6-ethyl-7-[(3-fluorophenyl)methyl]-7H-pyrrolo[2,3-d]pyrimidin-4-yl]oxy]acetic acid] the figure was 98 nM.
Turning to `CCc1c(C(=O)C(N)=O)c2c(OCC(=O)O)ncnc2n1Cc1ccccc1-c1ccccc1` [—H|—H|o-phenyl-phenyl, [[5-(aminooxoacetyl)-6-ethyl-7-([1,1′-biphenyl]-2-ylmethyl)-7H-pyrrolo[2,3-d]pyrimidin-4-yl]oxy]acetic acid], the IC50 under setting [1] was determined as 114 nM.
With `CCc1c(C(=O)C(N)=O)c2c(OCC(=O)O)ncnc2n1Cc1ccccc1` [—H|—H|phenyl, [[5-(aminooxoacetyl)-6-ethyl-7-(phenylmethyl)-7H-pyrrolo[2,3-d]pyrimidin-4-yl]oxy]acetic acid], the IC50 was found to be 48 nM.
Still for that read-out and setting: in the case of `CCc1c(C(=O)C(N)=O)c2c(OCC(=O)O)nc(OC)nc2n1Cc1ccccc1` [—H|—O—CH3|phenyl, [[2-methoxy-5-(aminooxoacetyl)-6-ethyl-7-(phenylmethyl)-7H-pyrrolo[2,3-d]pyrimidin-4-yl]oxy]acetic acid] it was 46 nM; in that of `CCc1c(C(=O)C(N)=O)c2c(OCC(=O)O)nc(SC)nc2n1Cc1cccc(C(F)(F)F)c1` [—H|—S-methyl|m-CF3-phenyl, [[2-(methylthio)-5-(aminooxoacetyl)-6-ethyl-7-[[3-(trifluoromethyl)phenyl]methyl]-7H-pyrrolo[2,3-d]pyrimidin-4-yl]oxy]acetic acid], 13 nM.
The same measure, in the same setting: in the case of `CCc1c(C(=O)C(N)=O)c2c(OCC(=O)O)nc(SC)nc2n1Cc1cccc(Cl)c1` [—H|—S-methyl|m-Cl-phenyl, [[2-(methylthio)-5-(aminooxoacetyl)-6-ethyl-7-[(3-chlorophenyl)methyl]-7H-pyrrolo[2,3-d]pyrimidin-4-yl]oxy]acetic acid] it was 19 nM.
Still for that read-out and setting: in the case of `CCc1c(C(=O)C(N)=O)c2c(OCC(=O)O)nc(SC)nc2n1Cc1cccc(F)c1` [—H|—S-methyl|m-F-phenyl, [[2-(methylthio)-5-(aminooxoacetyl)-6-ethyl-7-[(3-fluorophenyl)methyl]-7H-pyrrolo[2,3-d]pyrimidin-4-yl]oxy]acetic acid] it was 16 nM; in that of `CCc1c(C(=O)C(N)=O)c2c(OCC(=O)O)nc(SC)nc2n1Cc1ccccc1-c1ccccc1` [—H|—S-methyl|o-phenyl-phenyl, [[2-(methylthio)-5-(aminooxoacetyl)-6-ethyl-7-([1,1′-biphenyl]-2-ylmethyl)-7H-pyrrolo[2,3-d]pyrimidin-4-yl]oxy]acetic acid], 9 nM.
For the compound `CCc1c(C(=O)C(N)=O)c2c(OCC(=O)O)nc(Sc3ccccc3)nc2n1Cc1ccccc1` [—H|—S-phenyl|phenyl, [[2-(phenylthio)-5-(aminooxoacetyl)-6-ethyl-7-(phenylmethyl)-7H-pyrrolo[2,3-d]pyrimidin-4-yl]oxy]acetic acid], the IC50 turned out to be 11 nM.
Still for that read-out and setting: with `CCc1c(C(=O)C(N)=O)c2c(OCC(=O)O)nc(SC)nc2n1Cc1ccccc1` [—H|—SCH3|phenyl, [[2-(methylthio)-5-(aminooxoacetyl)-6-ethyl-7-(phenylmethyl)-7H-pyrrolo[2,3-d]pyrimidin-4-yl]oxy]acetic acid] the figure was 19 nM.
